This data set concerns SNCA mRNA. Briefly: ASO-Bind-Map in cells (gapmer ASO, RT-qPCR). It is filed as cell-based, human. To be noted: 200 nM, SH-SY5Y cells, RT-qPCR. On the procedure: Mapping Synucleozid's binding site in cells with ASO-Bind-Map. SH-SY5Y cells were treated with vehicle (DMSO) or Synucleozid at 60% confluency overnight and were then transfected with a gapmer ASO (200 nM) with Lipofectamine RNAiMAX (Invitrogen) according to the manufacturer's instructions. Mock samples were generated by treating cells with transfection reagent lacking oligonucleotide. RNA extraction, cDNA synthesis and RT-qPCR were performed as described above after 48 h. Primers for SNCA mRNA in this experiment cover sequences upstream and downstream of the IRE; forward primer: [NT]; reverse primer [NT].
(Real-time PCR tracks product formation cycle by cycle.)

As for “5′-CACTCCCAGT-3′ (2'-MOE phosphorothioate gapmer, further chemistry not given here) [ASO(1-10), reference compound]”, the “reduction of SNCA mRNA levels by gapmer” value is listed as ~50%.

“5′-TCCTTTACACC-3′ (2'-MOE phosphorothioate gapmer, further chemistry not given here) [ASO(29-39), reference compound]”: the “reduction of SNCA mRNA levels by gapmer” value is ~50%.

The values above are taken from patent US20230054976A1, “METHODS FOR INHIBITION OF ALPHA-SYNUCLEIN mRNA USING SMALL MOLECULES” (The Scripps Research Institute, priority 2019, published 2023).
